Test results: US20250235543A1, “MODIFIED PROTEINS AND PROTEIN DEGRADERS” (Cullgen (Shanghai), Inc., priority 2021, published 2025)
Read-outs that look alike come from different tables or passages of the source.

Assays:
cyclin D1 = assay: Cyclin D1 percentage degradation in Calu-1 cells (immunoblotting); assay type: cell-based; conditions: 16 hours
Method in brief: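 Cyclin D1 degradation was assessed by western blot. Clarified lysates, obtained by RIPA lysis with inhibitors and centrifugation at 13,000 rpm, were normalized by BCA protein assay and separated by SDS-PAGE. Bands were detected with Western ECL Substrate on a Bio-Rad ChemiDoc MP Imaging system and quantified in Image Lab software to derive percentage degradation.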

CDK4 = target: T1, CDK4 (Homo sapiens, UniProt P11802); assay: CDK4 percentage degradation in Calu-1 cells (immunoblotting); assay type: cell-based; conditions: for inhibition at 0.2 µM: read-out: CDK4 Degradation (200 nM); for inhibition at 10 µM: read-out: CDK4 Degradation (10 μM)
T1 construct: endogenous in cells; host or cells: Calu-1
T1 sequence (P11802 2-303 limits assumed): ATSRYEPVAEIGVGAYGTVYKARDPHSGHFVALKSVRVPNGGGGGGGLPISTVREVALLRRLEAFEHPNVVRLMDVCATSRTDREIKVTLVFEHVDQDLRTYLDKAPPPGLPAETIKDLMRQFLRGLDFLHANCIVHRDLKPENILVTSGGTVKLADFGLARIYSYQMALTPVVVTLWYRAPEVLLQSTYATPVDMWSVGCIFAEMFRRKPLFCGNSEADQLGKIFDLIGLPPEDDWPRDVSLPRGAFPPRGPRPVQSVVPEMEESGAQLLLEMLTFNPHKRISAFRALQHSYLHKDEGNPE
T1 sequence (P24385 whole entry partner): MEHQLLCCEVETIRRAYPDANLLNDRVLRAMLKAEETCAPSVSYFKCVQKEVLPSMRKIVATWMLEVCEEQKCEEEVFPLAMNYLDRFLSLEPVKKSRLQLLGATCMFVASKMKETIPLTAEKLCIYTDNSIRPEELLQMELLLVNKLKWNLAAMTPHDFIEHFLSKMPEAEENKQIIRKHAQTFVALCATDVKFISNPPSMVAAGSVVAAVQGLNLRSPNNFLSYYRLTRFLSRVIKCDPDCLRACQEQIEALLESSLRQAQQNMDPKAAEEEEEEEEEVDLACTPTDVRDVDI
T1 sequence (Q16531 2-1140 limits assumed, further chain): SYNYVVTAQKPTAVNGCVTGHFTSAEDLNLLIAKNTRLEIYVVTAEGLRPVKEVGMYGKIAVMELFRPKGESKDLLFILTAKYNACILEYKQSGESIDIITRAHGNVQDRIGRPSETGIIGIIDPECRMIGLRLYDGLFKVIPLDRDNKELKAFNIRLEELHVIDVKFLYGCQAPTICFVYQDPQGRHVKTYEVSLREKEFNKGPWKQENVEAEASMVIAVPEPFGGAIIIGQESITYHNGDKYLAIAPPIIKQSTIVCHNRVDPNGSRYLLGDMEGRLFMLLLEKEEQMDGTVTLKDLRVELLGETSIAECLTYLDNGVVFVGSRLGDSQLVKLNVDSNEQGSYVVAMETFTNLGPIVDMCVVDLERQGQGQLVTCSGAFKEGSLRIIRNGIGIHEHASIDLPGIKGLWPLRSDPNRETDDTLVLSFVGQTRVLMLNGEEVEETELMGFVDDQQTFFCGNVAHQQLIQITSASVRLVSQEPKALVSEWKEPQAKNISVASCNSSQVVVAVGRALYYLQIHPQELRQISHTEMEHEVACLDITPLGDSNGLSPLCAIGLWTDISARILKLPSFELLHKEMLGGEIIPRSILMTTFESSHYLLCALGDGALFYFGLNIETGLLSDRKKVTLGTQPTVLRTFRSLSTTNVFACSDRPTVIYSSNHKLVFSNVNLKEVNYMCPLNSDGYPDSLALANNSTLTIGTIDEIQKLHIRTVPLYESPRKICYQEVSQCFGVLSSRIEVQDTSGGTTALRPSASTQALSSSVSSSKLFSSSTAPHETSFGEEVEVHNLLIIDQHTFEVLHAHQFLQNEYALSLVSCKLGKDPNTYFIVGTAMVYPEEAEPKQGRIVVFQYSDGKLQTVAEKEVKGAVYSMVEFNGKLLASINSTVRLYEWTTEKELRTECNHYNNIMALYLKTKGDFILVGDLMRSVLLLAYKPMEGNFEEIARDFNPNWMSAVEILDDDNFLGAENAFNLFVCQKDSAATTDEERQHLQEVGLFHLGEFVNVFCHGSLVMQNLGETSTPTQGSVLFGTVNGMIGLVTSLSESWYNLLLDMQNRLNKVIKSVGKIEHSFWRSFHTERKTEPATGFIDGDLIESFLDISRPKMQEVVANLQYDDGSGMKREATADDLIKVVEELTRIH
Method in brief: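 CDK4 degradation was measured by immunoblotting. Cells were washed in cold PBS and lysed in RIPA buffer with inhibitors for 30 min at 4° C., then spun at 13,000 rpm to clear. After BCA protein determination, lysates were heated at 99° C. for 5 min in Laemmli buffer, resolved on SDS-PAGE, imaged on a ChemiDoc MP with ECL substrate, and band intensities quantified.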

SMILES | CyclinD1 Degradation (200 nM) (cyclin D1) | inhibition at 0.2 µM (CDK4; Calu-1, 16 h) [%] | inhibition at 0.2 µM (CDK4; Calu-1 cells, 200 nM, 16 hours) [%] | CyclinD1 Degradation (10 μM) (cyclin D1) | inhibition at 10 µM (CDK4; Calu-1 cells, 16 hours) [%]
CC(=O)c1c(C)c2cnc(Nc3ccc(N4CCN(C(=O)CCCCCCCNc5cccc(C(=O)Nc6nc(C)c(C)s6)c5C)CC4)cn3)nc2n(C2CCCC2)c1=O [CPD-125, 3-((8-(4-(6-((6-Acetyl-8-cyclopentyl-5-methyl-7-oxo-7,8-dihydropyrido[2,3-d]pyrimidin-2-yl)amino)pyridin-3-yl)piperazin-1-yl)-8-oxooctyl)amino)-N-(4,5-dimethylthiazol-2-yl)-2-methylbenzamide] | D (protein percentage degradation <30%) | < 30 |  |  | 
CC(=O)c1c(C)c2cnc(Nc3ccc(N4CCN(C(=O)CCOCCOCCOCCC(=O)Nc5ccccc5C(=O)Nc5nc(C)c(C)s5)CC4)cn3)nc2n(C2CCCC2)c1=O [CPD-357, 2-(3-(2-(2-(3-(4-(6-((6-Acetyl-8-cyclopentyl-5-methyl-7-oxo-7,8-dihydropyrido[2,3-d]pyrimidin-2-yl)amino)pyridin-3-yl)piperazin-1-yl)-3-oxopropoxy)ethoxy)ethoxy)propanamido)-N-(4,5-dimethylthiazol-2-yl)benzamide] | A (protein percentage degradation >=80%) | 50 to 80 |  |  | 
CC(=O)c1c(C)c2cnc(Nc3ccc(N4CCN(C(=O)CCCCCNc5cccc(C(=O)Nc6nc(C)c(C)s6)c5C)CC4)cn3)nc2n(C2CCCC2)c1=O [CPD-137, 3-((6-(4-(6-((6-Acetyl-8-cyclopentyl-5-methyl-7-oxo-7,8-dihydropyrido[2,3-d]pyrimidin-2-yl)amino)pyridin-3-yl)piperazin-1-yl)-6-oxohexyl)amino)-N-(4,5-dimethylthiazol-2-yl)-2-methylbenzamide] | D (protein percentage degradation <30%) | < 30 |  |  | 
CNc1ccc(NC(=O)CCOCCOCCNC(=O)CN2CCN(c3ccc(Nc4ncc5c(C)c(C(C)=O)c(=O)n(C6CCCC6)c5n4)nc3)CC2)c(C(=O)Nc2nc(C)c(C)s2)c1 [CPD-150, 2-(3-(2-(2-(2-(4-(6-((6-Acetyl-8-cyclopentyl-5-methyl-7-oxo-7,8-dihydropyrido[2,3-d]pyrimidin-2-yl)amino)pyridin-3-yl)piperazin-1-yl)acetamido)ethoxy)ethoxy)propanamido)-N-(4,5-dimethylthiazol-2-yl)-5-(methylamino)benzamide] | A (protein percentage degradation >=80%) |  | 50 to 80 |  | 
CC(=O)c1c(C)c2cnc(Nc3ccc(N4CCN(CC(=O)NCCOCCOCCC(=O)Nc5ccc(C)cc5C(=O)Nc5nc(C)c(C)s5)CC4)cn3)nc2n(C2CCCC2)c1=O [CPD-141, 2-(3-(2-(2-(2-(4-(6-((6-Acetyl-8-cyclopentyl-5-methyl-7-oxo-7,8-dihydropyrido[2,3-d]pyrimidin-2-yl)amino)pyridin-3-yl)piperazin-1-yl)acetamido)ethoxy)ethoxy)propanamido)-N-(4,5-dimethylthiazol-2-yl)-5-methylbenzamide] | A (protein percentage degradation >=80%) |  | 50 to 80 |  | 
CC(=O)c1c(C)c2cnc(Nc3ccc(N4CCN(C(=O)CCCCCNc5ccc(C)c(C(=O)Nc6nc(C)c(C)s6)c5)CC4)cn3)nc2n(C2CCCC2)c1=O [CPD-129, 5-((6-(4-(6-((6-Acetyl-8-cyclopentyl-5-methyl-7-oxo-7,8-dihydropyrido[2,3-d]pyrimidin-2-yl)amino)pyridin-3-yl)piperazin-1-yl)-6-oxohexyl)amino)-N-(4,5-dimethylthiazol-2-yl)-2-methylbenzamide] | D (protein percentage degradation <30%) | < 30 |  |  | 
Cc1nc(NC(=O)c2ccccc2NC(=O)CCCCCCCNC(=O)CN2CCN(Cc3ccc(Nc4ncc(F)c(-c5cc(F)c6nc(C)n(C(C)C)c6c5)n4)nc3)CC2)sc1C [CPD-278, N-(4,5-Dimethylthiazol-2-yl)-2-(8-(2-(4-((6-((5-fluoro-4-(4-fluoro-1-isopropyl-2-methyl-1H-benzo[d]imidazol-6-yl)pyrimidin-2-yl)amino)pyridin-3-yl)methyl)piperazin-1-yl)acetamido)octanamido)benzamide] |  |  |  | D (protein percentage degradation < 30%) | < 30
CC(=O)c1c(C)c2cnc(Nc3ccc(N4CCN(CC(=O)NCCCCCCCNc5cccc(C(=O)Nc6ccc(C)nc6)c5C)CC4)cn3)nc2n(C2CCCC2)c1=O [CPD-328, 3-((7-(2-(4-(6-((6-Acetyl-8-cyclopentyl-5-methyl-7-oxo-7,8-dihydropyrido[2,3-d]pyrimidin-2-yl)amino)pyridin-3-yl)piperazin-1-yl)acetamido)heptyl)amino)-2-methyl-N-(6-methylpyridin-3-yl)benzamide] | D (protein percentage degradation <30%) |  | < 30 |  | 
CC(=O)c1c(C)c2cnc(Nc3ccc(N4CCN(CC(=O)NCCOCCOCCC(=O)Nc5ccccc5C(=O)Nc5cc(C)n(C)n5)CC4)cn3)nc2n(C2CCCC2)c1=O [CPD-052, 2-(3-(2-(2-(2-(4-(6-((6-Acetyl-8-cyclopentyl-5-methyl-7-oxo-7,8-dihydropyrido[2,3-d]pyrimidin-2-yl)amino)pyridin-3-yl)piperazin-1-yl)acetamido)ethoxy)ethoxy)propanamido)-N-(1,5-dimethyl-1H-pyrazol-3-yl)benzamide] | A (protein percentage degradation >=80%) |  | 50 to 80 |  | 
CC(=O)c1c(C)c2cnc(Nc3ccc(N4CCN(C(=O)CCOCCOCCOCCOCCOCCNc5cccc(C(=O)Nc6nc(C)c(C)s6)c5C)CC4)cn3)nc2n(C2CCCC2)c1=O [CPD-126, 3-((18-(4-(6-((6-Acetyl-8-cyclopentyl-5-methyl-7-oxo-7,8-dihydropyrido[2,3-d]pyrimidin-2-yl)amino)pyridin-3-yl)piperazin-1-yl)-18-oxo-3,6,9,12,15-pentaoxaoctadecyl)amino)-N-(4,5-dimethylthiazol-2-yl)-2-methylbenzamide] | B (protein percentage degradation <80%, and >=50%) | 50 to 80 |  |  | 
CC(=O)c1c(C)c2cnc(Nc3ccc(N4CCN(CC(=O)NCCOCCOCCC(=O)Nc5ccccc5C(=O)Nc5cnc(C)nc5)CC4)cn3)nc2n(C2CCCC2)c1=O [CPD-186, 2-(3-(2-(2-(2-(4-(6-((6-Acetyl-8-cyclopentyl-5-methyl-7-oxo-7,8-dihydropyrido[2,3-d]pyrimidin-2-yl)amino)pyridin-3-yl)piperazin-1-yl)acetamido)ethoxy)ethoxy)propanamido)-N-(2-methylpyrimidin-5-yl)benzamide] | B (protein percentage degradation <80%, and >=50%) |  | 50 to 80 |  | 
Cc1nc(NC(=O)c2ccccc2NC(=O)CCCCCCNC(=O)CN2CCN(c3ccc(Nc4ncc5cc(C(=O)N(C)C)n(C6CCCC6)c5n4)nc3)CC2)sc1C [CPD-291, 7-Cyclopentyl-2-((5-(4-(2-((7-((2-((4,5-dimethylthiazol-2-yl)carbamoyl)phenyl)amino)-7-oxoheptyl)amino)-2-oxoethyl)piperazin-1-yl)pyridin-2-yl)amino)-N,N-dimethyl-7H-pyrrolo[2,3-d]pyrimidine-6-carboxamide] |  |  |  | B (protein percentage degradation < 80%, and >= 50%) | 30 to 50
